This passage reports IC50 results from ChEMBL document CHEMBL1146821, “Pyridazines. Part 36: Synthesis and antiplatelet activity of 5-substituted-6-phenyl-3(2H)-pyridazinones” (Bioorg Med Chem Lett, 2004).

One assay is filed under the species Homo sapiens. In words: The antiplatelet activity by the turbidimetric method in washed human platelets using thrombin as agonist; Precipitates under the conditions of the study. The class given is functional.
On to `Oc1cc(-c2ccccc2)c(-c2ccccc2)nn1`, for which the IC50 result was “Precipitates under the conditions of the study”.
The same measure, in the same setting: to `Oc1cc(-c2ccc(Cl)cc2)c(-c2ccccc2)nn1` belongs “Precipitates under the conditions of the study”.
Still for that read-out and setting: to `O=Cc1ccc(-c2cc(O)nnc2-c2ccccc2)cc1` belongs “Precipitates under the conditions of the study”.

For the next assay, the species on record is Homo sapiens. In words: The antiplatelet activity by the turbidimetric method in washed human platelets using thrombin as agonist; Promotes platelet aggregation. In kind it is functional.
`Oc1cc(Oc2ccccc2)c(-c2ccccc2)nn1`: the IC50 result was “Promotes platelet aggregation”.

The species entered for a further assay is Homo sapiens. In words: The antiplatelet activity was tested by the turbidimetric method in washed human platelets using thrombin as agonist. In kind it is functional.
`OCCCC#Cc1cc(O)nnc1-c1ccccc1` showed an IC50 of over 1000 µM.
In turn, `OCC#Cc1cc(O)nnc1-c1ccccc1` registered an IC50 of over 1000 µM.
Same read-out and setting: to `Oc1cc(-c2ccco2)c(-c2ccccc2)nn1` belongs 635 µM; to `CCOC(C#Cc1cc(O)nnc1-c1ccccc1)OCC`, over 1000 µM; to `COCCOC(=O)/C=C/c1cc(O)nnc1-c1ccccc1`, over 1000 µM.
For `Cc1ccc(-c2cc(O)nnc2-c2ccccc2)cc1`, the IC50 was found to be 152 µM.
The same measure, in the same setting: to `N#C/C=C/c1cc(=O)[nH]nc1-c1ccccc1` belongs over 1000 µM; to `C#Cc1cc(O)nnc1-c1ccccc1`, 500 µM; to `COC(=O)/C=C/c1cc(O)nnc1-c1ccccc1`, over 1000 µM.
The same measure, in the same setting: to `Oc1cc(Sc2ccccc2)c(-c2ccccc2)nn1` belongs 15 µM.
Still for that read-out and setting: to `OCCC#Cc1cc(O)nnc1-c1ccccc1` belongs over 2000 µM.
Turning to `O=C(/C=C/c1cc(=O)[nH]nc1-c1ccccc1)c1ccccc1`, the IC50 was found to be 25 µM.
The same measure, in the same setting: to `COC(=O)C(=Cc1cc(=O)[nH]nc1-c1ccccc1)C(=O)OC` belongs 45 µM; to `CCOC(=O)C(=Cc1cc(=O)[nH]nc1-c1ccccc1)C(=O)OCC`, 20 µM.
On the same count and under the same terms, to `O=C1C(CC[S+]([O-])c2ccccc2)C(=O)N(c2ccccc2)N1c1ccccc1` (stereo unspecified) [SULFINPYRAZONE] belongs 500 µM.

For a further assay, the species on record is Homo sapiens. In words: The antiplatelet activity by the turbidimetric method in washed human platelets using thrombin as agonist; NA is inactive. The class given is functional.
In the case of `CCOC(=O)/C=C/c1cc(=O)[nH]nc1-c1ccccc1`, the IC50 entry is listed as “Not Active”.
Same read-out and setting: to `O=c1cc(/C=C/c2ccccc2)c(-c2ccccc2)n[nH]1` belongs “Not Active”.

What is called IC50 is the concentration that inhibits the measured activity by half.
